Literature values in patent US9109008B2, “Tubulysin compounds, methods of making and use” (priority 2013, dated 2015).

System: cancer cell lines
Details: Kaur et al. 2006

Q: For CC[C@H](C)[C@H](NC(=O)[C@H]1CCCCN1C)C(=O)N(COC(=O)CC(C)C)[C@H](C[C@@H](OC(C)=O)c1nc(C(=O)N[C@@H](Cc2ccc(O)cc2)C[C@H](C)C(=O)O)cs1)C(C)C [tubulysin A], which “antiproliferative potency compared with other antimitotic agents” value is on record?
A: Its value is “more potent than other antimitotic agents such as paclitaxel and vinblastine”.
